Test results: patent US20190224347A1, “Detection of Renal Amyloidosis by Imaging with Stilbene or Phenylbenzothiazole Derivatives” (Mayo Foundation for Medical Education and Research, priority 2018, published 2019)

Molecular target: T1, leucocyte cell-derived chemotaxin-2 (LECT2) amyloidosis (Homo sapiens, UniProt O14960)
T1 construct: biopsy-confirmed leucocyte cell-derived chemotaxin-2 (LECT2) amyloidosis underwent a positron emission tomography/computed tomography (PET/CT) scan with florbetapir; from tissue; host or cells: Living patient: amyloid deposits in lungs, spleen, adrenal glands, kidneys and bone marrow
T1 sequence (O14960 19-151): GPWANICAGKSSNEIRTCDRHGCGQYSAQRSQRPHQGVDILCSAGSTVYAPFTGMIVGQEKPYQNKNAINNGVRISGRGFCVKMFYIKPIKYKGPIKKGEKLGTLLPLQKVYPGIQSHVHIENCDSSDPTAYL
Assay: PET/CT scan with florbetapir 18F in a patient with biopsy-confirmed LECT2 amyloidosis
Assay type: in vivo
Procedure: Administration to the subject of a pharmaceutical composition including a radiolabeled stilbene derivative or phenylbenzothiazole derivative chosen from the compounds of Formulas (I) to (VII) above for in vivo detection of the accumulated compound in LECT2-based protein structures can be accomplished intravenously, intraarterially, intrathecally, intramuscularly, intradermally, subcutaneously, or intracavitary. Dosage can vary. In one non-limiting example, dosage may vary from 0.001 μg/kg to 10 μg/kg. In another non-limiting example, the dose for florbetapir may be 370 MBq (10 mCi), maximum 50 μg mass dose, administered as a single intravenous bolus in a total volume of 10 mL or less. The injection may be followed with an intravenous flush of 0.9% sterile sodium chloride. In the method of the invention, sufficient time is allowed after administration such that the radiolabeled stilbene derivative or phenylbenzothiazole derivative can accumulate in any LECT2-based protein structures.
A person with end stage renal disease on haemodialysis secondary to biopsy-confirmed leucocyte cell-derived chemotaxin-2 (LECT2) amyloidosis underwent a positron emission tomography/computed tomography (PET/CT) scan with florbetapir ^18F. […] These organs normally have low activity on florbetapir PET/CT. The activity pattern is consistent with pathological data on the distribution of amyloidosis in this disease. […] A remarkable finding in this patient is the uptake in the kidney because they make little urine and is on chronic haemodialysis.

CNc1ccc(/C=C/c2ccc(OCCOCCOCC[18F])nc2)cc1 [florbetapir ^18F]
PET/CT activity in bone marrow (PET/CT, same patient, bone marrow): diffuse intense activity above normal background
PET/CT activity in the heart (PET/CT, same patient, heart): normal background activity
accumulation in LECT2-based protein structures (positron emission tomography): accumulates within LECT2-based protein structures
